Assays:
[1] = system: follicle stimulating hormone (FSH); experiment: CS21: serum FSH over time; format: in vivo, human
Method: (§1) Finally, the study evaluated the pharmacokinetics of the degarelix dosing regimens investigated.
(§2) The secondary efficacy endpoints were: the proportion of patients with testosterone surge during the first 2 weeks of treatment; the proportion of patients with testosterone level ≤0.5 ng/mL at day 3; the percentage change in PSA from baseline to day 28; the probability of testosterone ≤0.5 ng/mL from day 56 through day 364; the levels of serum testosterone, LH, FSH and PSA over time through the study; the time to PSA failure, defined as two consecutive increases of 50%, and at least 5 ng/mL as compared to nadir; degarelix concentration over the first month and trough levels at day 308 and 336; the frequency and size of testosterone increases at day 255 and/or 259 compared to the testosterone level at day 252; the quality of life on days 0, 28, 84, 168 and end of study visit; the frequency and intensity of hot flushes experienced (scored daily from study start until end of study visit. In addition, two further secondary endpoints were added: the probability of sufficient testosterone response from day 28 through day 364 (a patient was considered to have insufficient testosterone response if they had one testosterone value >1.0 ng/mL or two consecutive testosterone values >0.5 ng/mL at day 28 onwards); and the percentage change in PSA from baseline to Day 14.

[2] = CS21: mortality by treatment group; format: in vivo, human
From the text: The death of a patient enrolled in this study was not considered an event per se, but rather an outcome. Any event resulting in a fatal outcome was fully documented and reported, including death, which occurred within the four weeks after treatment end, and regardless of the causality relationship to the IMP.
Mortality Subgroups with Statistically (Pre-Planned as Part of the ISS) Significant Findings

[3] = CS21: incidence rates of cardiovascular events per 1,000 person years (Poisson model), by risk-factor subgroup; details: in vivo
From the text: The SCS summarizes both crude incidences (n/N) as well as incidence rates of adverse events (number of patients with at least one adverse event investigated per 1,000 person years) including exact 95% CI based on the Poisson model and presented per MedDRA Preferred term (and grouped by SOC) for all study-groups, including the CS21 trial (the trial comprising the controlled phase 3 study group) and for all sub-groups. Briefly, the Poisson model provides exact 1-α lower (LL) and upper (UL) confidence limits are LL=χ2x; α/2^2/(2T) and UL=χ2(x+1); 1-α/2^2/(2T), respectively, where T is the number of 1,000 person years and x=number of subjects at least once having reported the adverse event under investigation (see Gerlinger et al. (2003) Eur. J. Contracept. Reprod. Health Care 8:87-92).
These P values were presented as *(0.01<P≤0.05), ** (0.001<P≤0.01), and *** (P≤0.001). Similarly, incidence rates were compared using P values associated with the Poison model-based UMPU test. Briefly, assuming xi˜Poisson(λiTi), where xi=the number of subjects with the event, Ti=total number of 1,000 person years in arm i and λi=incidence rate in arm i (i=1,2), then the P value=2 min ([…], P(S≤x1), 0.5), where S˜Binomial (x1+x2, T1/(T1+T2)) (see, e.g. Lehmann (1986) Testing Statistical Hypotheses, 2nd edition, Springer-Verlag, New York).
In the SCS, cardiovascular events were more specifically investigated on more aggregated MedDRA levels, i.e. the incidence, and incidence rates of subject with AEs in the following High Level Group Terms were tabulated by study group and treatment:
These subgroup analyses were not pre-planned as part of the SCS.

[4] = in vivo
Method: Body weight was measured at screening and the end of study visit.

[5] = system: testosterone; experiment: CS21 phase 3 study, degarelix vs leuprolide 7.5 mg: serum testosterone suppression; format: in vivo, human
Method: In this example, an open-label, multi-center, randomized, parallel-group study was conducted to investigate the efficacy and safety of degarelix one month dosing regimens. […] These degarelix dosing regimens were compared to LUPRON DEPOT™ at 7.5 mg in patients with prostate cancer requiring androgen ablation therapy. […] Finally, the study evaluated the pharmacokinetics of the degarelix dosing regimens investigated. […] The primary efficacy endpoint was analyzed for both the ITT and PP analysis sets, with the ITT analysis set considered primary. The primary efficacy endpoint was analyzed using the Kaplan Meier method. For each of the three treatment groups, testosterone response rates with 95% confidence interval (CI) were calculated by log-log transformation of survivor function. […] All secondary efficacy endpoints were analyzed for both the ITT and PP analysis sets, unless otherwise stated. […] The percentage change in PSA from baseline to day 28 endpoint was analyzed by a Wilcoxon test. […] The secondary endpoints; probability of testosterone ≤0.5 ng/mL from Day 56 through Day 364, time to PSA failure and probability of sufficient testosterone response from Day 28 through Day 364 were analyzed by the Kaplan-Meier method.

[6] = system: luteinizing hormone (LH); experiment: CS21: serum LH over time; format: in vivo, human
Method: as §1, §2

[7] = age <65, degarelix 240@40/80@20, LUPRON DEPOT 7.5 mg
[8] = degarelix 240/80 mg, leuprolide 7.5 mg

Structure (SMILES): CCNC(=O)[C@@H]1CCCN1C(=O)[C@H](CCCNC(=N)N)NC(=O)[C@H](CC(C)C)NC(=O)[C@@H](CC(C)C)NC(=O)[C@H](Cc1ccc(O)cc1)NC(=O)[C@H](CO)NC(=O)[C@H](Cc1c[nH]c2ccccc12)NC(=O)[C@H](Cc1c[nH]cn1)NC(=O)[C@@H]1CCC(=O)N1 [Leuprolide, leuprolide, reference compound]
- median FSH plateau ([1]; around day 56 until day 364): approximately 4.40 IU/L
- median FSH level ([1]; by day 14): 2.0 IU/L
- increase in FSH from baseline ([1]; day 1): 146%
- median FSH level (peak) ([1]; day 1): 22.5 IU/L
- Crude Mortality ([2]; Age >=65-<75): (8%)
- Mortality per 1,000 PY, estimate ([2]; Age >=65-<75): 99.0 per 1,000 PY
- No. of Deaths ([2]; Age >=65-<75): 6
- Crude Mortality ([2]; PCA = Localized): (6%)
- Mortality per 1,000 PY, estimate ([2]; PCA = Localized): 70.3 per 1,000 PY
- No. of Deaths ([2]; PCA = Localized): 4
- Coronary artery disease, % of patients [3]: (5%)
- Coronary artery disease, incidence rate [3]: 63.4 per 1,000 person years
- HLGT Cardiac arrhythmias, % of patients [3]: (8%)
- HLGT Cardiac arrhythmias, incidence rate [3]: 100 per 1,000 person years
- HLGT Central nervous system vascular disorders, % of patients [3]: (<1%)
- HLGT Central nervous system vascular disorders, incidence rate [3]: 5.63 per 1,000 person years
- HLGT Coronary artery disorders, % of patients [3]: (5%)
- HLGT Coronary artery disorders, incidence rate [3]: 63.4 per 1,000 person years
- HLGT Heart failures, % of patients [3]: (2%)
- HLGT Heart failures, incidence rate [3]: 28.4 per 1,000 person years
- Heart failure, % of patients [3]: (2%)
- Heart failure, incidence rate [3]: 28.4 per 1,000 person years
- MI, % of patients [3]: (2%)
- MI, incidence rate [3]: 22.6 per 1,000 person years
- Stroke, % of patients [3]: (<1%)
- Stroke, incidence rate [3]: 5.63 per 1,000 person years
- markedly abnormal increases in weight of ≥7% from baseline, % of patients [4]: 13%
- Probability of sufficient testosterone response [5, 7]: 92.1%
- Probability of testosterone ≤0.5 ng/mL from Day 28 through Day 364 [5, 7]: 89.5%
- Probability of testosterone ≤0.5 ng/mL from Day 56 through Day 364 [5, 7]: 89.5%
- patients with testosterone suppression on day 3 ([5]; day 3): no patients
- Kaplan-Meier probability of testosterone ≤0.5 ng/mL from day 28 to day 364 [5, 8]: 96.4%
- observed cases analysis: proportion of patients with testosterone ≤0.5 ng/mL from day 28 to day 364 [5, 8]: 96.0%
- patients with testosterone surge (increase ≥15% from baseline) ([5]; first two weeks, pooled degarelix, leuprolide 7.5 mg): 80.1%
- median LH level ([6]; by day 56 until day 364): 0.035 IU/L
- median LH level ([6]; day 1): 31.0 IU/L
- increase in median LH from baseline ([6]; day 1, leuprolide 7.5 mg): > 400%
